From BindingDB's records for doi:10.1074/jbc.M113.514646 (Emory University, 2014)

Legend:
Experiment in all cases: Ligand Binding Assay
Settings in all cases: pH 8.2; 30 °C
[1] = target: Fatty acid-binding protein 5 (Homo sapiens, UniProt Q01469)
Source text: (§1) In brief, both wild-type and mutant hFABP5 were expressed and purified to homogeneity as described above and dialyzed in PBS (pH 8.2). […] Blank measurements obtained from protein-only samples were subtracted at each protein concentration tested to obtain the final values. […] Blanks consisting of 1,8-ANS and fatty acid in the absence of protein were subtracted at each ligand concentration tested. The resulting fluorescence values were used to calculate a Ki value for the fatty acid of interest. Data were collected at 30 °C on a BioTek Synergy plate reader using an excitation filter of 380/20nm and an emission filter of 460/40nmand processed inGraphPad Prism 5.

[2] = target: Fatty acid-binding protein 5 [K24A,R33A,K34A] (Homo sapiens, UniProt Q01469, K24A/K34A/R33A)
Sequence of Fatty acid-binding protein 5 [K24A,R33A,K34A] (Q01469 2-135 K24A/R33A/K34A limits assumed): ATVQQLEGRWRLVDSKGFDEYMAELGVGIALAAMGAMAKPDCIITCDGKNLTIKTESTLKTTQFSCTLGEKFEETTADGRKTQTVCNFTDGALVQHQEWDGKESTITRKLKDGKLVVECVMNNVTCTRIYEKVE
Source text: as §1

[3] = target: Fatty acid-binding protein 5 [M35A,L60A] (Homo sapiens, UniProt Q01469, L60A/M35A)
Sequence of Fatty acid-binding protein 5 [M35A,L60A] (Q01469 2-135 M35A/L60A limits assumed): as the sequence (Q01469 2-135 K24A/R33A/K34A limits assumed) above, with A23K, A32R, A33K, M34A, L59A counted along it
Source text: as §1

Sequence of Fatty acid-binding protein 5 (Q01469 whole entry): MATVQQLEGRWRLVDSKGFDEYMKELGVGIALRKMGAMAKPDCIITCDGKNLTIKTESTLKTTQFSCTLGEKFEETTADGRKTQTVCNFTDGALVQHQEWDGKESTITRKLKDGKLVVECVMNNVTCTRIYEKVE

Kd [1]	Kd [2]	Kd [3]	Compound	Ki [1]	Ki [2]	Ki [3]
–	–	–	CCCCCC/C=C\CCCCCCCC(=O)O [(9Z)-hexadec-9-enoic acid]	1360 nM	1640 nM	1780 nM
–	–	–	CCCCCCCCN[C@H]1C=C(CO)[C@@H](O)[C@H](O)[C@H]1O [NOEV]	1100 nM	1240 nM	700 nM
–	–	–	CCCCC/C=C\C/C=C\CCCCCCCC(=O)O	1260 nM	2170 nM	3470 nM
6570 nM	12600 nM	6100 nM	O=S(=O)(O)c1cccc2cccc(Nc3ccccc3)c12 [ANS]	–	–	–
–	–	–	CCCCC/C=C\C/C=C\C/C=C\C/C=C\CCCC(=O)O [[1-14C]Arachidonic acid]	2590 nM	9370 nM	5010 nM
